Laboratory results taken from ChEMBL document CHEMBL5584337, “Structure-Based Drug Design of 2-Amino-[1,1'-biphenyl]-3-carboxamide Derivatives as Selective PKMYT1 Inhibitors for the Treatment of CCNE1-Amplified Breast Cancer” (J Med Chem, 2024).
Blank lines part the entries; values can stand above or below the compound they belong to. The source made the active and inactive calls. The calls are words filed in the database; no cut-off is given here.

Tests used:
HCC1569 [1] = assay: Antiproliferative activity against human HCC1569 cells incubated for 48 to 96 hrs by CCK-8 assay; assay type: functional, cell-based
ZR-75-1 [2] = assay: Antiproliferative activity against human ZR-75-1 cells incubated for 48 to 96 hrs by CCK-8 assay; assay type: functional, cell-based
[3] = molecular target: Membrane-associated tyrosine- and threonine-specific cdc2-inhibitory kinase (Homo sapiens, UniProt Q99640); assay: Inhibition of recombinant human GST-tagged PKMYT1 (75 to 362 residues) expressed in insect cells using GTDEGIYDVPLLG as substrate preincubated for 15 mins followed by substrate and ATP addition and measured after 1 hr by ADP-Glo kinase assay; parameters: species or system Insect cell
Chain of Membrane-associated tyrosine- and threonine-specific cdc2-inhibitory kinase (Q99640 whole entry, the tested form may be a part): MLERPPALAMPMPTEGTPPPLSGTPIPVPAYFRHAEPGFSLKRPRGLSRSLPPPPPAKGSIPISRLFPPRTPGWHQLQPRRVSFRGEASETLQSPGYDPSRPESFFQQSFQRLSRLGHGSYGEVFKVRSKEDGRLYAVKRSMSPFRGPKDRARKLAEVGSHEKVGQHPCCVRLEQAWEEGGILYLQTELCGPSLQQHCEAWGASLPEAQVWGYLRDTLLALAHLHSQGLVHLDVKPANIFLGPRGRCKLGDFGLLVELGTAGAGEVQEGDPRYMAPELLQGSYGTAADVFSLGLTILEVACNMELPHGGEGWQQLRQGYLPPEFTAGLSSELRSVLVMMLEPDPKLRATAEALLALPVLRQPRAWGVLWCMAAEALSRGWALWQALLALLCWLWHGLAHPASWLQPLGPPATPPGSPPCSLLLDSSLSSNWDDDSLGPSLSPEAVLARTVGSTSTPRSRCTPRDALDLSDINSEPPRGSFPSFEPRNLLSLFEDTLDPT

Wee1-like protein kinase = Wee1-like protein kinase (Homo sapiens, UniProt P30291); assay: Inhibition of recombinant full-length human GST-tagged Wee1 expressed in insect cells using KIGEGTYGVVYKG as substrate preincubated for 15 mins followed by substrate and ATP addition and measured after 1 hr by ADP-Glo kinase assay; parameters: species or system Insect cell
Chain of Wee1-like protein kinase (P30291 whole entry): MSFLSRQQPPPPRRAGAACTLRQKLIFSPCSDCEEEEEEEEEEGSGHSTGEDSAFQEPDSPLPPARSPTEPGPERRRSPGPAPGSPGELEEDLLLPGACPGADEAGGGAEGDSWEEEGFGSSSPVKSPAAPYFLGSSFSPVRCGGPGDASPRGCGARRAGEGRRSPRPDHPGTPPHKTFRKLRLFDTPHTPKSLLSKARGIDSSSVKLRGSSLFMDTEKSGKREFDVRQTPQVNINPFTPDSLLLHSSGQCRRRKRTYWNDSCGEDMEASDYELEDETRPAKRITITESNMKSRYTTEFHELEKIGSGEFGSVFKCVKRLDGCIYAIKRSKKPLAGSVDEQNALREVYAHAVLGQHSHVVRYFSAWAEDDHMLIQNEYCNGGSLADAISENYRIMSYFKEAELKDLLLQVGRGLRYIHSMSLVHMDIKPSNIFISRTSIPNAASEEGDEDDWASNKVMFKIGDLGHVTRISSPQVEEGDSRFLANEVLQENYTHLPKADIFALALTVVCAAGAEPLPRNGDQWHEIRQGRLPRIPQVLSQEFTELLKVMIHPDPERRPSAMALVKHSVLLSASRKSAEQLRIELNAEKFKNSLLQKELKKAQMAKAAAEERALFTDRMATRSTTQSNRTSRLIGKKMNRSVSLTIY

Activated CDC42 kinase 1 = Activated CDC42 kinase 1 (Homo sapiens, UniProt Q07912); assay: Inhibition of ACK1 (unknown origin)
[4] = molecular target: Tyrosine-protein kinase ABL2 (Homo sapiens, UniProt P42684); assay: Inhibition of Arg (unknown origin)
[5] = molecular target: Tyrosine-protein kinase Blk (Homo sapiens, UniProt P51451); assay: Inhibition of BLK (unknown origin)
Chain of Tyrosine-protein kinase Blk (P51451 whole entry): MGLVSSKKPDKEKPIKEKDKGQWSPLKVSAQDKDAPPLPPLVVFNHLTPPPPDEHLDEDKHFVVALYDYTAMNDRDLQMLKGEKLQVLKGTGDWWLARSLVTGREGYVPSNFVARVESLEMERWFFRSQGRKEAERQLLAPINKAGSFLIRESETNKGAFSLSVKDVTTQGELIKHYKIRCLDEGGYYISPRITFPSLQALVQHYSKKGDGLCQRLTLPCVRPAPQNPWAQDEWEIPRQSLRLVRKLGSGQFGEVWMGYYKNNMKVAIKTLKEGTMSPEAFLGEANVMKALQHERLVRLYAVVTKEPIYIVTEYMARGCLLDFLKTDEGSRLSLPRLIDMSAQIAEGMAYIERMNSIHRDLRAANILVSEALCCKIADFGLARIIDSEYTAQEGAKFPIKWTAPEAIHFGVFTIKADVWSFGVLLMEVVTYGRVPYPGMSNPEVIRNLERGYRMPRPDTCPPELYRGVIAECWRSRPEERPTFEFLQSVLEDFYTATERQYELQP

[6] = molecular target: Protein-tyrosine kinase 6 (Homo sapiens, UniProt Q13882); assay: Inhibition of BRK (unknown origin)
Chain of Protein-tyrosine kinase 6 (Q13882 whole entry): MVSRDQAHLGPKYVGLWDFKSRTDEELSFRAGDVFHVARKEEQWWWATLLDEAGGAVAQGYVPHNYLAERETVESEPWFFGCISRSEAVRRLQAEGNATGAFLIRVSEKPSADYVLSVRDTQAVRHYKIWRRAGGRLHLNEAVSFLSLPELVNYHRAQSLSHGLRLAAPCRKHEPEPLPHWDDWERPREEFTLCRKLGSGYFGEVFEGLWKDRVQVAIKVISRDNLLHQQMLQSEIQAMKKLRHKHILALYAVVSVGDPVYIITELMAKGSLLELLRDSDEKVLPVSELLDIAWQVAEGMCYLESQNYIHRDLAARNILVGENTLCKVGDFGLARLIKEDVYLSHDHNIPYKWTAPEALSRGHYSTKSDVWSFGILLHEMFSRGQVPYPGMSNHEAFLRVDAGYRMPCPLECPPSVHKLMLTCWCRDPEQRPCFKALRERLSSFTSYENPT

[7] = molecular target: Proto-oncogene tyrosine-protein kinase Src (Homo sapiens, UniProt P12931); assay: Inhibition of cSRC (unknown origin)
[8] = molecular target: Epithelial discoidin domain-containing receptor 1 (Homo sapiens, UniProt Q08345); assay: Inhibition of DDR1 (unknown origin)
Chain of Epithelial discoidin domain-containing receptor 1 (Q08345 whole entry, the tested form may be a part): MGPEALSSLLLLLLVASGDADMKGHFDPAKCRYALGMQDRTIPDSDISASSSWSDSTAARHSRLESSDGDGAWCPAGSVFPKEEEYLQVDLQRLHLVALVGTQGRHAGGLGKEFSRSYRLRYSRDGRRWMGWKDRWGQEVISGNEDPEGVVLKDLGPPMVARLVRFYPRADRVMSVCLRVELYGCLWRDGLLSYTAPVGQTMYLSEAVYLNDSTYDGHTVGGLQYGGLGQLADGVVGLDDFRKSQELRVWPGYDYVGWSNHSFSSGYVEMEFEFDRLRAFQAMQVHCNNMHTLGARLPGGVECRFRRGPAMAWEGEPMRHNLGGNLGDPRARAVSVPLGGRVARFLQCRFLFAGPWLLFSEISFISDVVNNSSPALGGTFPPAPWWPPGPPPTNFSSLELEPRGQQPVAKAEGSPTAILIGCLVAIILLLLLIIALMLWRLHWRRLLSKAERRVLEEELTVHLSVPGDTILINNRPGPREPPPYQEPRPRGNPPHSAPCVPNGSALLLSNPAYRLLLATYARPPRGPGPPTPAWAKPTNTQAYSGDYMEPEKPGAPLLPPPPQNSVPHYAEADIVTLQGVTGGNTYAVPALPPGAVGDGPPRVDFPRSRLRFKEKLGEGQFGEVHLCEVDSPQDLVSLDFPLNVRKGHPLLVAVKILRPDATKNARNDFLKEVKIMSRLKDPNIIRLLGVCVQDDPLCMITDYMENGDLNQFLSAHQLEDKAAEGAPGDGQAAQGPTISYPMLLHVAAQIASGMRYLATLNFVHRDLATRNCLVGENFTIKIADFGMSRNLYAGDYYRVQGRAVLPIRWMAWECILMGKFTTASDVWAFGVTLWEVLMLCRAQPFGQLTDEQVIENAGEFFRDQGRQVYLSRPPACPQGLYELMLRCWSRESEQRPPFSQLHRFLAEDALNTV

Ephrin type-A receptor 1 = Ephrin type-A receptor 1 (Homo sapiens, UniProt P21709); assay: Inhibition of EphA1 (unknown origin)
Ephrin type-B receptor 2 = Ephrin type-B receptor 2 (Homo sapiens, UniProt P29323); assay: Inhibition of EphB2 (unknown origin)
Ephrin type-B receptor 1 = Ephrin type-B receptor 1 (Homo sapiens, UniProt P54762); assay: Inhibition of EphB1 (unknown origin)
Ephrin type-B receptor 4 = Ephrin type-B receptor 4 (Homo sapiens, UniProt P54760); assay: Inhibition of EphB4 (unknown origin)
Chain of Ephrin type-B receptor 4 (P54760 whole entry): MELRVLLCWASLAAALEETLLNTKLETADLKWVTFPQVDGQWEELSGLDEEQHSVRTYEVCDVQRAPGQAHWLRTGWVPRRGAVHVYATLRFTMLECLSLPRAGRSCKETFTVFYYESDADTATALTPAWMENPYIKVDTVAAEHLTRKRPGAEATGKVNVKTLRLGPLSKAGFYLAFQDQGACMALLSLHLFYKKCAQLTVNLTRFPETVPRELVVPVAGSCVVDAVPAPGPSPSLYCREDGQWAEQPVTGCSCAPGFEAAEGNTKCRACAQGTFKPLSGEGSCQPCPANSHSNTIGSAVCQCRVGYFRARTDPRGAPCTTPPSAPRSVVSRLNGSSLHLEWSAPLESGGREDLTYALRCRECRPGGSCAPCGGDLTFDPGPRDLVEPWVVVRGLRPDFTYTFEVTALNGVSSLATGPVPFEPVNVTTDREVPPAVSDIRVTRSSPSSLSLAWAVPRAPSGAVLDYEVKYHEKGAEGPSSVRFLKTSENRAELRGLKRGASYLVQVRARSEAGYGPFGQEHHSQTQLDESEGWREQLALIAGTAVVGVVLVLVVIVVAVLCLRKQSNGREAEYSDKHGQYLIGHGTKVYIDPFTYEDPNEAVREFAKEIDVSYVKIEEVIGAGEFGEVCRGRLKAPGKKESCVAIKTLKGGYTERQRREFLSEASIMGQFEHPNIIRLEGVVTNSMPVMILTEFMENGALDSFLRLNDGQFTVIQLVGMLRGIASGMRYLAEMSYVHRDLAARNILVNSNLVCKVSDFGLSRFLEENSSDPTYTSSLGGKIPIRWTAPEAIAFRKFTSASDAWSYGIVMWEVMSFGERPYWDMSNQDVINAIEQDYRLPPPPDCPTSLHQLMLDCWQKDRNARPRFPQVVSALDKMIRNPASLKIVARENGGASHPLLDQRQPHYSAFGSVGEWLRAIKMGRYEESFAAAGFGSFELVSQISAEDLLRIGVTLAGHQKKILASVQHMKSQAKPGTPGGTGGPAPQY

[9] = molecular target: Tyrosine-protein kinase Fgr (Homo sapiens, UniProt P09769); assay: Inhibition of Fgr (unknown origin)
Chain of Tyrosine-protein kinase Fgr (P09769 whole entry): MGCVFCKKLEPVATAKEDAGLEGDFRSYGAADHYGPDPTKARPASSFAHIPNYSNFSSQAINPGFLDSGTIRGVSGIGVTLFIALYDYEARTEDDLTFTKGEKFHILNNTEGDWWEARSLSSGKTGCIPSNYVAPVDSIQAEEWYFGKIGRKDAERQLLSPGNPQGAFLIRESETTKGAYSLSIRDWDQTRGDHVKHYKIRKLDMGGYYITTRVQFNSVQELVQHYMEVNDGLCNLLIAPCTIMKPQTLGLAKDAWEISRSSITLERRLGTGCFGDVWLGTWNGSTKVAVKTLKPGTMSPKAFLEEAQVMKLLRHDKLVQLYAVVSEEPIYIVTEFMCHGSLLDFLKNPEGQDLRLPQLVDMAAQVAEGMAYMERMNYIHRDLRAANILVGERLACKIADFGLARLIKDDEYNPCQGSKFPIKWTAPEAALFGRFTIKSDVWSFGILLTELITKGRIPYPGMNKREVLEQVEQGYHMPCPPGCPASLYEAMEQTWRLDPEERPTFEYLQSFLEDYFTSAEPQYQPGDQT

[10] = molecular target: Tyrosine-protein kinase HCK (Homo sapiens, UniProt P08631); assay: Inhibition of HCK (unknown origin)
[11] = molecular target: Tyrosine-protein kinase Lck (Homo sapiens, UniProt P06239); assay: Inhibition of LCK (unknown origin)
[12] = molecular target: Tyrosine-protein kinase Lyn (Homo sapiens, UniProt P07948); assay: Inhibition of Lyn (unknown origin)
[13] = molecular target: Tyrosine-protein kinase Yes (Homo sapiens, UniProt P07947); assay: Inhibition of YES (unknown origin)
[14] = molecular target: Cyclin-dependent kinase 1 (Homo sapiens) (UniProt P06493); assay: Inhibition of CDK1 phosphorylation at Thr14 in human HCC1569 cells after 4 hrs by Western blotting analysis; assay type: cell-based; conditions: dose 0.1-2 µM
Chain of Cyclin-dependent kinase 1 (Homo sapiens) (P06493 whole entry, looked up): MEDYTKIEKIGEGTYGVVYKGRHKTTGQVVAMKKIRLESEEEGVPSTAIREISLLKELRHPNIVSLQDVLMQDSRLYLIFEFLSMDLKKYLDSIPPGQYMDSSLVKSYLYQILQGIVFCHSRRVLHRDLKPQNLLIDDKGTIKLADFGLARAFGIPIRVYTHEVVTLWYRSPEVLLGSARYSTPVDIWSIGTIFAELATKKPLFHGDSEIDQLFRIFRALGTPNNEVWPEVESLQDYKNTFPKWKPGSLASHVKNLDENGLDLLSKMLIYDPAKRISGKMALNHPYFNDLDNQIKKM

[15] = molecular target: Cyclin-dependent kinase 1 (Homo sapiens) (UniProt P06493); assay: Inhibition of CDK1 phosphorylation at Thr14 in human HCC1569 cells at 2 uM after 8 to 12 hrs by Western blotting analysis; assay type: cell-based; conditions: time 8-12 hrs
[16] = molecular target: Cyclin-dependent kinase 1 (Homo sapiens) (UniProt P06493); assay: Inhibition of CDK1 phosphorylation at […] in human HCC1569 cells at 2 uM after 0.5 to 12 hrs by Western blotting analysis; assay type: cell-based; conditions: time 0.5-12 hrs
[17] = molecular target: Cyclin-dependent kinase 2 (Homo sapiens) (UniProt P24941); assay: Inhibition of CDK2 phosphorylation at Tyr15 in human HCC1569 cells at 0.1 to 2 uM after 4 hrs by Western blotting analysis; assay type: cell-based; conditions: dose 0.1-2 µM
HCC1569 [18] = assay: Inhibition of colony formation in CCNE1-amplified human HCC1569 cells incubated for 14 days by crystal violet staining based microplate reader assay; assay type: functional, cell-based; conditions: HCC1569, 336 h
ZR-75-1 [19] = assay: Inhibition of colony formation in human ZR-75-1 cells incubated for 14 days by crystal violet staining based microplate reader assay; assay type: functional, cell-based; conditions: ZR-75-1, 336 h
HCC1569 [20] = assay: Induction of DNA damage in human HCC1569 cells assessed as upregulation of gammaH2AX level after 4 hrs by Western blotting analysis; assay type: functional, cell-based; conditions: dose 0.1-2 µM
HCC1569 [21] = assay: Induction of DNA damage in human HCC1569 cells assessed as upregulation of gammaH2AX level at 2 uM by Western blotting analysis; assay type: functional, cell-based; conditions: time 0.5-12 hrs, TDE = time-dependent effect
HCC1569 [22] = assay: Synergistic cytotoxicity against human HCC1569 cells after 48 to 96 hrs; assay type: functional, cell-based; conditions: time 48-96 hrs
HCC1569 [23] = assay: Induction of DNA damage in human HCC1569 cells assessed as upregulation of gammaH2AX level at 62.5 to 500 nM after 48 hrs in presence of gemcitabine by Western blotting analysis; assay type: functional, cell-based; conditions: dose 62.5-500 nM
[24] = Cmax in Sprague-Dawley rat at 10 mg/kg, po measured upto 24 hrs by LC-MS/MS analysis; assay type: ADME, organism-based; conditions: in vivo
[25] = AUC(0 to t) in Sprague-Dawley rat at 10 mg/kg, po measured upto 24 hrs by LC-MS/MS analysis; assay type: ADME, organism-based; conditions: in vivo
[26] = Clearance in Sprague-Dawley rat at 10 mg/kg, po measured upto 24 hrs by LC-MS/MS analysis; assay type: ADME, organism-based; conditions: in vivo

Compound: Cc1ccc(O)c(C)c1-c1cc(-c2ccnc(N3C4CNCC3C4)c2)cc(C(N)=O)c1N
- IC50 (HCC1569 [1]): > 20000 nM
- IC50 (ZR-75-1 [2]): > 20000 nM

Compound: Cc1ccc(O)c(C)c1-c1cc(-c2ccnc(OCCCN)c2)cc(C(N)=O)c1N
- IC50 (HCC1569 [1]): 9480 nM
- IC50 (ZR-75-1 [2]): 15400 nM

Compound: Cc1ccc(O)c(C)c1-c1cc(-c2ccnc(N3C[C@@H]4C[C@H]3CN4)c2)cc(C(N)=O)c1N
- IC50 (HCC1569 [1]): 7780 nM
- IC50 (ZR-75-1 [2]): > 20000 nM

Compound: Cc1ccc(O)c(C)c1-c1cc(-c2ccnc(N3CCOCC3)c2)cc(C(N)=O)c1N
- IC50 (HCC1569 [1]): 1840 nM
- IC50 (ZR-75-1 [2]): > 20000 nM

Compound: Cc1ccc(O)c(C)c1-c1cc(-c2ccnc(OC3CCNCC3)c2)cc(C(N)=O)c1N
- IC50 (HCC1569 [1]): 3840 nM
- IC50 (ZR-75-1 [2]): > 20000 nM

Compound: Cc1ccc(O)c(C)c1-c1cc(-c2ccnc(OC[C@H]3CCNC3)c2)cc(C(N)=O)c1N
- IC50 (HCC1569 [1]): 2190 nM
- IC50 (ZR-75-1 [2]): 8530 nM

Compound: CNCCCOc1cc(-c2cc(C(N)=O)c(N)c(-c3c(C)ccc(O)c3C)c2)ccn1
- IC50 (HCC1569 [1]): 2490 nM
- IC50 (ZR-75-1 [2]): > 20000 nM

Stronger by IC50 (HCC1569 [1]), values ahead:

- IC50 (HCC1569 [1]): 1660 nM
Compound: Cc1ccc(O)c(C)c1-c1cc(-c2ccnc(OCCN)c2)cc(C(N)=O)c1N
- IC50 (ZR-75-1 [2]): 4400 nM

- IC50 (HCC1569 [1]): 1180 nM
Compound: Cc1ccc(O)c(C)c1-c1cc(-c2ccnc(OC[C@@H]3CCCN3)c2)cc(C(N)=O)c1N
- IC50 (ZR-75-1 [2]): 7120 nM

- IC50 (HCC1569 [1]): 1390 nM
Compound: Cc1ccc(O)c(C)c1-c1cc(-c2ccnc(N3CCNCC3)c2)cc(C(N)=O)c1N
- IC50 (ZR-75-1 [2]): > 20000 nM

- IC50 (HCC1569 [1]): 1650 nM
Compound: Cc1ccc(O)c(C)c1-c1cc(-c2ccnc(N3CC[C@H](N)C3)c2)cc(C(N)=O)c1N
- IC50 (ZR-75-1 [2]): > 20000 nM

- IC50 (HCC1569 [1]): 290 nM
Compound: Cc1ccc(O)c(C)c1-c1cc(-c2ccnc(N3CC[C@@H](N)C3)c2)cc(C(N)=O)c1N
- IC50 (ZR-75-1 [2]): 8490 nM

- IC50 (HCC1569 [1]): 470 nM
Compound: CN[C@@H]1CCN(c2cc(-c3cc(C(N)=O)c(N)c(-c4c(C)ccc(O)c4C)c3)ccn2)C1
- IC50 (ZR-75-1 [2]): 5600 nM

- IC50 (HCC1569 [1]): 250 nM
- IC50 [3]: 16.5 nM
- IC50 (Activated CDC42 kinase 1): 268 nM
- IC50 [4]: 10.9 nM
- IC50 [5]: 60.1 nM
- IC50 [6]: 8 nM
- IC50 [7]: 9.9 nM
- IC50 [8]: 10.6 nM
- IC50 (Ephrin type-A receptor 1): 110 nM
- IC50 (Ephrin type-B receptor 2): 27.2 nM
- IC50 (Ephrin type-B receptor 1): 41.6 nM
- IC50 (Ephrin type-B receptor 4): 134 nM
- IC50 [9]: 9.3 nM
- IC50 [10]: 48.6 nM
- IC50 [11]: 14.5 nM
- IC50 [12]: 18.3 nM
- IC50 [13]: > 1000 nM
- inhibition [14]: Dose-Dependent Effect
- inhibition [15]: 100%
- inhibition [16]: inactive
- inhibition [17]: inactive
- EC50 (HCC1569 [18]): 117 nM
- EC50 (ZR-75-1 [19]): > 5000 nM
- Cmax [24]: 6.17 ng/mL
- AUCt [25]: 6.51 ng·h/mL
- CL [26]: 92.17 mL/min/kg
Compound: Cc1ccc(O)c(C)c1-c1cc(-c2cc(F)nc(N3CC[C@@H](N)C3)c2)cc(C(N)=O)c1N
- IC50 (ZR-75-1 [2]): 4960 nM
- IC50 (Wee1-like protein kinase): 8200 nM
- Activity (HCC1569 [20]): Dose-Dependent Effect
- Activity (HCC1569 [21]): Tde
- Activity (HCC1569 [22]): Active
- Activity (HCC1569 [23]): Active

- IC50 (HCC1569 [1]): 290 nM
Compound: Cc1ccc(O)c(C)c1-c1cc(-c2ccnc(N3CCCNCC3)c2)cc(C(N)=O)c1N
- IC50 (ZR-75-1 [2]): 4830 nM

- IC50 (HCC1569 [1]): 800 nM
Compound: Cc1ccc(O)c(C)c1-c1cc(-c2cc(OC(F)F)nc(N3CC[C@@H](N)C3)c2)cc(C(N)=O)c1N
- IC50 (ZR-75-1 [2]): 4150 nM

- IC50 (HCC1569 [1]): 770 nM
- IC50 [3]: 101 nM
Compound: Cc1ccc(O)c(C)c1-c1cc(-c2ccncc2)cc(C(N)=O)c1N
- IC50 (ZR-75-1 [2]): 11600 nM
